# Measurements as given in patent US20260234149A1, “FUSED BICYCLIC COMPOUND” (CHIA TAI TIANQING PHARMACEUTICAL GROUP CO., LTD., priority 2022, published 2026).
# Assays:
# [1] = tested on: MDA-MB-436 cells; assay: Assay on inhibitory activity for MDA-MB-436 cell proliferation (CCK-8); format: cell-based; conditions: 168 h incubation, CCK-8, absorbance at 450 nm
# Protocol: 1.1 Assay on inhibitory activity for MDA-MB-436 cell proliferation MDA-MB-436 cells in a good growth state were collected into a centrifuge tube, adjusted to a cell density of 2×10^4 cells/mL using a complete medium (DMEM high glucose+[…]+1× insulin-transferrin-selenium (JTS-G)+16 μg/mL reduced glutathione), and seeded in a 96-well plate (100 μL/well), and the plate was incubated overnight in a cell incubator Compounds were added using a pipettor, such that the final concentrations of the compounds were 400 nM-0.02 nM. The wells were set in duplicate, and a control well was set. After 168 h of incubation in the cell incubator, the assay reagent CCK-8 (manufacturer: Dojindo Laboratories, Beijing; 10 μL/well) was added. After 1.5 h of incubation in the cell incubator, the absorbance was measured at 450 nm on a PerkinElmer Envision microplate reader.
# [2] = biological target: T1, PARP2 (Homo sapiens, UniProt Q9UGN5); assay: PARP2-Tracer activity assay (FP method); format: binding
# T1 construct: purchased BPS 80502
# Protocol: (§1) The enzyme inhibition activity of the compounds against PARP1/2-Tracer was tested using the FP method. First, 100 nL of inhibitors with a final concentration of 1% DMSO were transferred to a 384-well reaction plate (Corning 4514) using Echo655. Then, 5 μL of PARP1/2 (BPS, Cat #80501/80502) enzyme solution was added to each well, followed by centrifugation at 1000 RPM for 1 min at room temperature, and the reaction was allowed to proceed for 10 min. Subsequently, 5 μL of Tracer (ICE, Cat #001315-009) solution was added to each well, followed by centrifugation at 1000 RPM for 1 min at room temperature, and the reaction was allowed to proceed for 60 min. PARP1/2 and Tracer were prepared in a buffer containing 50 mM Tris (pH 8.0), 10 mM MgCl2, 150 mM NaCl, and 0.001% Triox-100, with final concentrations of 5/10 nM and 2.5 nM, respectively. Finally, the FP signal was read using BMG (PHERAstar FSX), and the IC50 values and nonlinear regression curve fitting were obtained using GraphPad Prism software.
# [3] = biological target: T2, PARP1 (Homo sapiens, UniProt P09874); assay: Assay on PARP1 protein activity (chemiluminescence assay kit); format: biochemical; conditions: PARP1 enzyme, 1 h room temperature
# T2 construct: purchased BPS 80551
# [4] = biological target: T2, PARP1; assay: PARP1-Tracer activity assay (FP method); format: binding
# Protocol: as §1
# T2 sequence (P09874 whole entry): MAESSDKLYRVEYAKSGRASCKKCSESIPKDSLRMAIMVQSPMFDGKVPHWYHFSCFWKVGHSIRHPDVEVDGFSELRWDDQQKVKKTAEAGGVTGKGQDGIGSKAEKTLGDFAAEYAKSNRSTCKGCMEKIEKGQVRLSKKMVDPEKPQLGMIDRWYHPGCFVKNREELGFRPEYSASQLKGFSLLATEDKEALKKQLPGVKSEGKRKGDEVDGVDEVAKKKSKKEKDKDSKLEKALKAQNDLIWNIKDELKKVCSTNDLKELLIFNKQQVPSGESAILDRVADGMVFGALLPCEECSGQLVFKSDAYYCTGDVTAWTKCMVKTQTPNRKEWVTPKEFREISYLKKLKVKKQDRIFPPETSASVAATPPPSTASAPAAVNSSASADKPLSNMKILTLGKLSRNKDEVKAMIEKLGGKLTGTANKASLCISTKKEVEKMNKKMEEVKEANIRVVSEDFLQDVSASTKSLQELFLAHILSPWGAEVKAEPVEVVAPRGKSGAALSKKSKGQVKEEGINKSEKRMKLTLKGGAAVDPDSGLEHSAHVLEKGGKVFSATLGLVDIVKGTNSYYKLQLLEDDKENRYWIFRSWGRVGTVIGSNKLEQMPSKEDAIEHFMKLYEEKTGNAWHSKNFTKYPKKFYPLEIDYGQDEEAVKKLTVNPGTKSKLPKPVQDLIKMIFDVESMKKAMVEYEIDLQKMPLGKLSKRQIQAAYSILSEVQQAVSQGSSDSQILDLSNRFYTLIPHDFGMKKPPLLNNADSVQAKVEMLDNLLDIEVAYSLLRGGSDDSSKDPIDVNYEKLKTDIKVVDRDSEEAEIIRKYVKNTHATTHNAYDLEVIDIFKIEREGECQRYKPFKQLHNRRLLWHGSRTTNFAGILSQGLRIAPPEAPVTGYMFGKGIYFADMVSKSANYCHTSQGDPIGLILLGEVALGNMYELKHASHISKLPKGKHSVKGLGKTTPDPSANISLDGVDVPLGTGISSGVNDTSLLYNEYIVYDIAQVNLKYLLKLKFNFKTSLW
# T1 sequence (Q9UGN5 whole entry): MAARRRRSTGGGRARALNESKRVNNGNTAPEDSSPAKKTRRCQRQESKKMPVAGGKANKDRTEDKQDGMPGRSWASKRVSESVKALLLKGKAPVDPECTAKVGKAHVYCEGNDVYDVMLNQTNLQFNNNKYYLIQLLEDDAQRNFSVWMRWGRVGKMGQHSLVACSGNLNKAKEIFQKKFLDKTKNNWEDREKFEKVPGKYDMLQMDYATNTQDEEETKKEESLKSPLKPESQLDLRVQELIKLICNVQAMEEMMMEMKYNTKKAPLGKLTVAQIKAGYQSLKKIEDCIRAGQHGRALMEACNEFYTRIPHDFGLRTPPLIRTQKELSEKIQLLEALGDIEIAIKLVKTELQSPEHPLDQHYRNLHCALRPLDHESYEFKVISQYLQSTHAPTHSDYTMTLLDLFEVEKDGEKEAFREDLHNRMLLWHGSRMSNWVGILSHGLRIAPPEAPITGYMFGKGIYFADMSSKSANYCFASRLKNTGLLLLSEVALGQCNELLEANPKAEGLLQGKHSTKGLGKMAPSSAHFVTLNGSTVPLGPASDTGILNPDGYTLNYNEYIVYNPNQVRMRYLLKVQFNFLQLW
SMILES,"IC50 ([1]; Homo sapiens, MDA-MB-436)",further results
CCc1nc2ccc(CN3C[C@H](N4Cc5cn(C(=O)NC)nc5C4)[C@@H]3C)cc2[nH]c1=O [Compound 45],–,IC50 [2]: > 0.5 µM; IC50 [3]: ≤ 0.001 µM; IC50 [4]: 0.00252 µM
CCc1cc2ncc(CN3C[C@H](N4Cc5cn(C(=O)NC)nc5C4)[C@@H]3C)cc2[nH]c1=O [Compound 47],–,IC50 [1]: ≤ 0.05 µM
"CNC(=O)n1cc2c(n1)CN(C1CN(Cc3ccc4cc(C(F)(F)F)c(=O)[nH]c4c3)[C@@H]1C)C2 (single isomer, unassigned) [Compound 35]",–,IC50 [1]: ≤ 0.05 µM
"CNC(=O)n1cc2c(n1)CN(C1CN(Cc3ccc4cc(C5CC5)c(=O)[nH]c4c3)[C@@H]1C)C2 (single isomer, unassigned) [Compound 40]",–,IC50 [1]: ≤ 0.05 µM
O=C(NC1CC1)n1cc2c(n1)CN(C1CN(Cc3ccc4cc(C5CC5)c(=O)[nH]c4c3)C1)C2 [Compound 11],≤ 0.05 µM,–
CCNC(=O)n1cc2c(n1)CN(C1CN(Cc3ccc4cc(CC)c(=O)[nH]c4c3)C1)C2 [Compound 13],≤ 0.05 µM,–
CCc1cc2ccc(CN3C[C@@H](N4Cc5cn(C(=O)NC)nc5C4)[C@@H]3C)cc2[nH]c1=O [Compound 39],≤ 0.05 µM,–
CNC(=O)n1cc2c(n1)CN(C1CN(Cc3ccc4cc(C(F)(F)F)c(=O)[nH]c4c3)C1)C2 [Compound 24],–,IC50 [2]: > 0.5 µM; IC50 [3]: ≤ 0.001 µM; IC50 [4]: 0.00248 µM
[2H]C([2H])([2H])NC(=O)n1cc2c(n1)CN(C1CN(Cc3ccc4cc(CC)c(=O)[nH]c4c3)C1)C2 [Compound 14],≤ 0.05 µM,–
CNC(=O)n1cc2c(n1)CN(C1CN(Cc3ccc4cc(C5CC5)c(=O)[nH]c4c3)C1)C2 [Compound 2],–,IC50 [3]: ≤ 0.001 µM

# Further lines, with some results ahead:
"IC50 ([1]; Homo sapiens, MDA-MB-436)",SMILES,further results
≤ 0.05 µM,CCc1cc2c(F)cc(CN3CC(N4Cc5cn(C(=O)NC)nc5C4)C3)cc2[nH]c1=O [Compound 16],–
≤ 0.05 µM,CCc1cc2ccc(CN3CC(N4Cc5cn(C(=O)NC(C)C)nc5C4)C3)cc2[nH]c1=O [Compound 9],–
≤ 0.05 µM,CCc1cc2ncc(CN3CC(N4Cc5nc(C(=O)NC)sc5C4)C3)cc2[nH]c1=O [Compound 7],–
≤ 0.05 µM,CNC(=O)n1cc2c(n1)CN(C1CN(Cc3ccc4c5c(c(=O)[nH]c4c3)CCC5)C1)C2 [Compound 15],–
≤ 0.05 µM,CCc1cc2ncc(CN3CC(N4Cc5cn(C(=O)NC6CC6)nc5C4)C3)cc2[nH]c1=O [Compound 5],–
≤ 0.05 µM,"CNC(=O)n1cc2c(n1)CN(C1CN(Cc3ccc4cc(C(F)(F)F)c(=O)[nH]c4c3)[C@H]1C)C2 (single isomer, unassigned) [Compound 36]",IC50 [3]: ≤ 0.01 µM
≤ 0.05 µM,CNC(=O)n1cc2c(n1)CN([C@@H]1CN(Cc3ccc4cc(C5CC5)c(=O)[nH]c4c3)[C@H]1C)C2 [Compound 43],–
≤ 0.05 µM,CCc1cc2ccc(CN3CC(N4Cc5cn(C(=O)NC6CC6)nc5C4)C3)cc2[nH]c1=O [Compound 4],–
≤ 0.05 µM,CCc1cc2ccc(CN3CC(N4Cc5cn(C(=O)NC)nc5C4)C3)cc2[nH]c1=O [Compound 1],–
≤ 0.05 µM,CCc1cc2ncc(CN3CC(N4Cc5cn(C(=O)NC)nc5C4)C3)cc2[nH]c1=O [Compound 10],–
